Laboratory results as given in patent publication EP4610269A1, “UROKINASE PLASMINOGEN ACTIVATOR SURFACE RECEPTOR (UPAR) LIGANDS FOR DIAGNOSTIC OR THERAPEUTIC USE” (3B Pharmaceuticals GmbH, priority 2024, dated 2025).
Like-named read-outs stand apart in the source and are kept apart here. *1 amine or outer side, *2 acyl side, *3 side chain or, on linkers, in order; H or OH if unused. Where a SMILES comes first, the peptide text is derived from it. Bridges are numbered along the chain shown (N, C = ends). [ ]: non-standard residue; d: D form. The star is where a group is joined. DOTA = O=C(O)CN1CCN(CC(=O)O)CCN(CC(=O)*)CCN(CC(=O)O)CC1; Pro(trans-4-F) = O=C(O)[C@@H]1C[C@@H](F)CN1; Lys(Me3) = C[N+](C)(C)CCCC[C@H](N)C(=O)O; Pro(cis-4-F) = O=C(O)[C@@H]1C[C@H](F)CN1; Phe(2-Cl) = N[C@@H](Cc1ccccc1Cl)C(=O)O; Dopa = N[C@@H](Cc1ccc(O)c(O)c1)C(=O)O; Ethylenediamine = C(CN[*:2])N[*:1]; Hyp = O=C(O)[C@@H]1C[C@@H](O)CN1; αMeF = C[C@](N)(Cc1ccccc1)C(=O)O; LaDOTA = La(III) DOTA conjugate; Pentanoyl(4-Me) = CC(C)CCC(=O)*; Cit = NC(=O)NCCC[C@H](N)C(=O)O; NMeL = CN[C@@H](CC(C)C)C(=O)O; Butoxycarbonyl = CCCCOC(=O)*; NMeV = CN[C@H](C(=O)O)C(C)C; Propanoyl(3-OH) = O=C(CCO)*; Nle = CCCC[C@H](N)C(=O)O; Orn = NCCC[C@H](N)C(=O)O; Nva = CCC[C@H](N)C(=O)O; Pentanoyl = CCCCC(=O)*; CO = O=C([*:1])[*:2]; NHPr = CCCN*

Assays:
[1] = biological target: T1, uPAR-expressing HEC-265 human endometrial adenocarcinoma cells (Homo sapiens, UniProt Q03405); experiment: Competitive FACS binding assay; settings: pIC50 category of FACS binding
T1 construct: Cell surface uPAR-expressing HEC-265 human endometrial adenocarcinoma cells; host or cells: HEC-265
T1 sequence (Q03405 23-335): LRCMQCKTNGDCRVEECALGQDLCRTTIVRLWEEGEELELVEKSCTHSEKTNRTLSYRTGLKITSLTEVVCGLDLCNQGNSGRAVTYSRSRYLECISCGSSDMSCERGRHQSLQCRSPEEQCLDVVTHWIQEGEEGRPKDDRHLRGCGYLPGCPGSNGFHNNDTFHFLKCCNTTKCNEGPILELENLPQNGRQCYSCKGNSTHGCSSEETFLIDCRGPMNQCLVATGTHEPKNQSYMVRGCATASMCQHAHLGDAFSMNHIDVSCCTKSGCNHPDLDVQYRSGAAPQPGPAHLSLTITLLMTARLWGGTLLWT
Procedure, shortened: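 HEC-265 cells incubated 1 h at 4 °C with 10 nM biotinylated uPAR peptide tracer plus increasing test compound, then stained with APC-streptavidin on ice. Median APC fluorescence by flow cytometry; 4PL fit gives pIC50.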

human uPAR (uPAR-Fc) = biological target: T2, human uPAR (uPAR-Fc) (Homo sapiens, UniProt Q03405); experiment: Surface plasmon resonance (SPR) assay, single cycle kinetics; format: binding; settings: pKD category for uPAR SPR activity assay, uPAR-Fc on Protein A-Chip, 25°C; for Kd: read-out: pKD CAT (converted)
T2 construct: comprising amino acids Leu23-Arg303 according to UniProt entry Q03405.1; purchased R&D Systems 10378-UK-100
T2 sequence (Q03405 23-303): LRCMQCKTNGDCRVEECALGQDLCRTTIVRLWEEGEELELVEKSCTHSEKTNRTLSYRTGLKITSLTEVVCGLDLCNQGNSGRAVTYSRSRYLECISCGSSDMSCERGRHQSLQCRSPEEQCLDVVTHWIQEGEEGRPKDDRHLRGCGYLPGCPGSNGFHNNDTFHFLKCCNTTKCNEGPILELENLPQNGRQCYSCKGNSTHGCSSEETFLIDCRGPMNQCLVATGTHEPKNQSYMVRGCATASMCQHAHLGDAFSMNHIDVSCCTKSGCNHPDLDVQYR
Procedure, shortened: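 uPAR-Fc (Leu23-Arg303 extracellular domains, human IgG1 Fc) captured on Protein A chip to ~2000 RU; single-cycle kinetics at 25°C in HEPES running buffer pH 7.4 with 0.1% DMSO. KD from double-referenced sensorgrams fitted to 1:1 Langmuir model, reported as pKD.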

Compound | IC50 [1] [nM] | Kd (human uPAR (uPAR-Fc)) [nM] | Kd (human uPAR (uPAR-Fc); single cycle kinetics) [nM] | pIC50 CAT [1] | pKD CAT (human uPAR (uPAR-Fc))
CCCCOC(=O)N[C@H]1CSSC[C@@H](C(=O)N[C@@H](CC(=O)O)C(N)=O)NC(=O)[C@H](CCC)NC(=O)[C@H]([C@@H](C)CC)NC(=O)[C@@H]2C[C@@H](O)CN2C(=O)[C@@H]2C[C@H](F)CN2C(=O)[C@H](Cc2ccccc2)NC(=O)[C@H](Cc2ccc(O)cc2)NC(=O)[C@H](CCCCNC(=O)CN2CCN(CC(=O)O)CCN(CC(=O)O)CCN(CC(=O)O)CC2)NC(=O)[C@H]([C@@H](C)O)NC1=O [UPAR-141, Butoc-[Cys-Thr-Lys(DOTA)-Tyr-Phe-4Cfp-Hyp-Ile-Nva-Cys]-Asp-NH2] (Butoxycarbonyl-CTK(DOTA)YF[Pro(cis-4-F)][Hyp]I[Nva]CD-NH2; disulfide 1-10) | 39.8 to 100 | 10 to 100 | – | – | –
CCCCC(=O)N[C@H]1CSSC[C@@H](C(N)=O)NC(=O)[C@H](CCC)NC(=O)[C@H]([C@@H](C)CC)NC(=O)[C@@H]2C[C@@H](O)CN2C(=O)[C@@H]2CCCN2C(=O)[C@H](Cc2ccccc2)NC(=O)[C@H](Cc2ccc(O)c(O)c2)NC(=O)[C@H](CCCCNC(=O)CN2CCN(CC(=O)O)CCN(CC(=O)O)CCN(CC(=O)O)CC2)NC(=O)[C@H](CCCNC(N)=O)NC1=O [UPAR-399, Pent-[Cys-Cit-Lys(DOTA)-Dopa-Phe-Pro-Hyp-Ile-Nva-Cys]-NH2] (Pentanoyl-C[Cit]K(DOTA)[Dopa]FP[Hyp]I[Nva]C-NH2; disulfide 1-10) | ≤ 10 | – | < 1.58 | – | –
CCCCC(=O)N[C@H]1CSSC[C@@H](C(N)=O)NC(=O)[C@H](CCC)NC(=O)[C@H]([C@@H](C)CC)NC(=O)[C@@H]2C[C@@H](O)CN2C(=O)[C@@H]2CCCN2C(=O)[C@H](Cc2ccccc2Cl)NC(=O)[C@H](Cc2ccc(O)cc2)NC(=O)[C@H](CCCCNC(=O)CN2CCN(CC(=O)O)CCN(CC(=O)O)CCN(CC(=O)O)CC2)NC(=O)[C@H](CCCNC(N)=O)NC1=O [UPAR-450, Pent-[Cys-Cit-Lys(DOTA)-Tyr-Ocf-Pro-Hyp-Ile-Nva-Cys]-NH2] (Pentanoyl-C[Cit]K(DOTA)Y[Phe(2-Cl)]P[Hyp]I[Nva]C-NH2; disulfide 1-10) | ≤ 10 | – | < 1.58 | – | –
CCCCC(=O)N[C@H]1CSSC[C@@H](C(N)=O)NC(=O)[C@H](CCC)NC(=O)[C@H]([C@@H](C)CC)NC(=O)[C@@H]2C[C@@H](O)CN2C(=O)[C@@H]2CCCN2C(=O)[C@H](Cc2ccccc2)NC(=O)[C@](C)(Cc2ccccc2)NC(=O)[C@H](CCC(N)=O)NC(=O)[C@H](CCCNC(=N)N)NC1=O [UPAR-478, Pent-[Cys-Arg-Gln-Amf-Phe-Pro-Hyp-Ile-Nva-Cys]-NH2] (Pentanoyl-CRQ[αMeF]FP[Hyp]I[Nva]C-NH2; disulfide 1-10) | 39.8 to 100 | – | 10 to 100 | – | –
CC[C@H](C)[C@@H]1NC(=O)[C@H](C)NC(=O)[C@@H]2CCCN2C(=O)[C@H](Cc2ccccc2)NC(=O)[C@H](Cc2ccc(O)cc2)NC(=O)[C@H](CCC(N)=O)NC(=O)[C@H](CCCNC(=N)N)NC(=O)[C@@H](NC(=O)[C@H](CC(C)C)NC(=O)[C@H](CC(=O)O)NC(C)=O)CSSC[C@@H](C(N)=O)NC(=O)[C@H](CC(C)C)NC1=O [UPAR-290, Ac-Asp-Leu-[Cys-Arg-Gln-Tyr-Phe-Pro-Ala-Ile-Leu-Cys]-NH2] (Ac-DLCRQYFPAILC-NH2; disulfide 3-12) | ≤ 10 | < 1.58 | – | – | –
CC[C@H](C)[C@@H]1NC(=O)[C@@H]2C[C@H](F)CN2C(=O)[C@@H]2CCCN2C(=O)[C@H](Cc2ccccc2)NC(=O)[C@H](Cc2ccc(O)cc2)NC(=O)[C@H](CCC(N)=O)NC(=O)[C@H](CCCNC(N)=O)NC(=O)[C@@H](NC(=O)CCC(C)C)CSSC[C@@H](C(N)=O)NC(=O)[C@H](CC(C)C)NC1=O [UPAR-307, iHex-[Cys-Cit-Gln-Tyr-Phe-Pro-4Cfp-Ile-Leu-Cys]-NH2] ({Pentanoyl(4-Me)}-C[Cit]QYFP[Pro(cis-4-F)]ILC-NH2; disulfide 1-10) | ≤ 10 | < 1.58 | – | – | –
CC[C@H](C)[C@@H]1NC(=O)[C@@H](C)NC(=O)[C@@H]2CCCN2C(=O)[C@H](Cc2ccccc2)NC(=O)[C@H](Cc2ccc(O)cc2)NC(=O)[C@H](CCC(N)=O)NC(=O)[C@H](CCCNC(N)=O)NC(=O)[C@@H](NC(=O)CCO)CSSC[C@@H](C(N)=O)NC(=O)[C@H](CC(C)C)NC1=O [UPAR-272, HPA-[Cys-Cit-Gln-Tyr-Phe-Pro-ala-Ile-Leu-Cys]-NH2] ({Propanoyl(3-OH)}-C[Cit]QYFP[dA]ILC-NH2; disulfide 1-10) | 39.8 to 100 | > 100 | – | – | –
CCCCOC(=O)N[C@H]1CSSC[C@@H](C(N)=O)NC(=O)[C@H](CCC)NC(=O)[C@H]([C@@H](C)CC)NC(=O)[C@@H]2C[C@@H](F)CN2C(=O)[C@@H]2CCCN2C(=O)[C@H](Cc2ccccc2)NC(=O)[C@H](Cc2ccc(O)cc2)NC(=O)[C@H](CCCCNC(=O)CN2CCN(CC(=O)O)CCN(CC(=O)O)CCN(CC(=O)O)CC2)NC(=O)[C@H]([C@@H](C)O)NC1=O [UPAR-289, Butoc-[Cys-Thr-Lys(DOTA)-Tyr-Phe-Pro-4Tfp-Ile-Nva-Cys]-NH2] (Butoxycarbonyl-CTK(DOTA)YFP[Pro(trans-4-F)]I[Nva]C-NH2; disulfide 1-10) | ≤ 10 | < 1.58 | – | – | –
CCCCC(=O)N[C@H]1CSSC[C@@H](C(=O)NCCN)NC(=O)[C@H](CCC)NC(=O)[C@H]([C@@H](C)CC)NC(=O)[C@@H]2C[C@@H](O)CN2C(=O)[C@@H]2CCCN2C(=O)[C@H](Cc2ccccc2)NC(=O)[C@H](Cc2ccc(O)cc2)NC(=O)[C@H](CCC(N)=O)NC(=O)[C@H](CCCNC(N)=O)NC1=O [UPAR-430, Pent-[Cys-Cit-Gln-Tyr-Phe-Pro-Hyp-Ile-Nva-Cys]-en] (Pentanoyl-C[Cit]QYFP[Hyp]I[Nva]C-Ethylenediamine; disulfide 1-10) | 12.6 to 31.6 | – | 1.58 to 10 | – | –
CCCC[C@@H]1NC(=O)[C@H](CCCNC(=N)N)NC(=O)[C@H](NC(=O)[C@H](CC(C)C)NC(=O)[C@H](CC(=O)O)NC(C)=O)CSSC[C@@H](C(N)=O)NC(=O)[C@H](CC(C)C)NC(=O)[C@H]([C@@H](C)CC)NC(=O)[C@H](C)NC(=O)[C@@H]2CCCN2C(=O)[C@H](Cc2ccccc2)NC(=O)[C@H](Cc2ccc(O)cc2)NC1=O [UPAR-412, Ac-Asp-Leu-[cys-Arg-Nle-Tyr-Phe-Pro-Ala-Ile-Leu-Cys]-NH2] (Ac-DL[dC]R[Nle]YFPAILC-NH2; disulfide 3-12) | ≥ 126 | – | > 100 | – | –
CCCNC(=O)N[C@H]1CSSC[C@@H](C(N)=O)NC(=O)[C@H](CCC)NC(=O)[C@H]([C@@H](C)CC)NC(=O)[C@@H]2C[C@@H](O)CN2C(=O)[C@@H]2CCCN2C(=O)[C@H](Cc2ccccc2)NC(=O)[C@H](Cc2ccc(O)cc2)NC(=O)[C@H](CCCCNC(=O)CN2CCN(CC(=O)O)CCN(CC(=O)O)CCN(CC(=O)O)CC2)NC(=O)[C@H](CCCNC(N)=O)NC1=O [UPAR-210, PrCAyl-[Cys-Cit-Lys(DOTA)-Tyr-Phe-Pro-Hyp-Ile-Nva-Cys]-NH2] ({NHPr-CO}-C[Cit]K(DOTA)YFP[Hyp]I[Nva]C-NH2; disulfide 1-10) | ≤ 10 | < 1.58 | – | – | –
CCCCC(=O)N[C@H]1CSSC[C@@H](C(N)=O)NC(=O)[C@H](CCC)NC(=O)[C@H]([C@@H](C)CC)NC(=O)[C@@H]2C[C@@H](O)CN2C(=O)[C@H](CC(C)C)N(C)C(=O)[C@H](Cc2ccccc2)NC(=O)[C@H](Cc2ccc(O)cc2)NC(=O)[C@H](CCC(N)=O)NC(=O)[C@H](CCCNC(=N)N)NC1=O [UPAR-302, Pent-[Cys-Arg-Gln-Tyr-Phe-Nml-Hyp-Ile-Nva-Cys]-NH2] (Pentanoyl-CRQYF[NMeL][Hyp]I[Nva]C-NH2; disulfide 1-10) | 12.6 to 31.6 | 1.58 to 10 | – | – | –
Pent-[Cys-KMe3-Lys(LaDOTA)-Tyr-Phe-Pro-Hyp-Ile-Nva-Cys]-NH2 (Pentanoyl-C[Lys(Me3)]K(LaDOTA)YFP[Hyp]I[Nva]C-NH2; disulfide 1-10; not fully specified; also: La(III) complexed by DOTA) [UPAR-183] | – | – | – | A (pIC50 values ≥8.0) | A (pKD values ≥ 8.8)
CCCCOC(=O)N[C@H]1CSSC[C@@H](C(N)=O)NC(=O)[C@H](CCC)NC(=O)[C@H]([C@@H](C)CC)NC(=O)[C@@H]2C[C@@H](O)CN2C(=O)[C@@H]2C[C@H](F)CN2C(=O)[C@H](Cc2ccccc2)NC(=O)[C@H](Cc2ccc(O)c(O)c2)NC(=O)[C@H](CCCNC(=O)CN2CCN(CC(=O)O)CCN(CC(=O)O)CCN(CC(=O)O)CC2)NC(=O)[C@H]([C@@H](C)O)NC1=O [UPAR-280, Butoc-[Cys-Thr-Orn(DOTA)-Dopa-Phe-4Cfp-Hyp-Ile-Nva-Cys]-NH2] (Butoxycarbonyl-CT[Orn](DOTA)[Dopa]F[Pro(cis-4-F)][Hyp]I[Nva]C-NH2; disulfide 1-10) | ≤ 10 | < 1.58 | – | – | –
CCCCC(=O)N[C@H]1CSSC[C@@H](C(N)=O)NC(=O)[C@H](CCC)NC(=O)[C@H]([C@@H](C)CC)NC(=O)[C@@H]2C[C@@H](O)CN2C(=O)[C@H](C(C)C)N(C)C(=O)[C@H](Cc2ccccc2)NC(=O)[C@H](Cc2ccc(O)cc2)NC(=O)[C@H](CCC(N)=O)NC(=O)[C@H](CCCNC(=N)N)NC1=O [UPAR-470, Pent-[Cys-Arg-Gln-Tyr-Phe-Nmv-Hyp-Ile-Nva-Cys]-NH2] (Pentanoyl-CRQYF[NMeV][Hyp]I[Nva]C-NH2; disulfide 1-10) | ≥ 126 | – | > 100 | – | –
